Experimental data published in ChEMBL document CHEMBL1201862, “PubChem BioAssay data set” (2004).
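Grown in 96-well plates, cells were treated for 48 hours with each compound at five concentrations. Insufficient inhibition: endpoint recorded as highest concentration tested. GI50: concentration for 50% inhibition of growth.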 Active and inactive are the calls of the source. No stated cut-off is given here; in the data, active = GI50 up to about 1.1 µM and inactive = higher.

Columns and labels:
Experiment in all cases: DTP human tumour cell line panel, 48 h
[1] = system: SNB-75
[2] = system: NCI-H23
[3] = system: HCT-15
[4] = system: SK-MEL-28
[5] = system: HOP-62
[6] = system: OVCAR-5
[7] = system: SK-MEL-5
[8] = system: DU-145
[9] = system: BT-549
[10] = system: PC-3
[11] = system: SR
[12] = system: EKVX
[13] = system: NCI-H226
[14] = system: SF-539
[15] = system: OVCAR-4
[16] = system: MCF7
[17] = system: COLO 205
[18] = system: ACHN
[19] = system: HCC 2998
[20] = system: NCI-H460
[21] = system: RPMI-8226
[22] = system: 786-0
[23] = system: IGROV-1
[24] = system: HCT-116
[25] = system: U-251
[26] = system: NCI/ADR-RES
[27] = system: UACC-62
[28] = system: NCI-H522
[29] = system: UACC-257
[30] = system: SK-OV-3
[31] = system: KM12
[32] = system: MDA-N
[33] = system: CCRF-CEM
[34] = system: CAKI-1
[35] = system: SNB-19
[36] = system: Malme-3M
[37] = system: OVCAR-8
[38] = system: UO-31
[39] = system: T47D
[40] = system: MOLT-4
[41] = system: MDA-MB-231
[42] = system: SF-268
[43] = system: MDA-MB-435
[44] = system: HT-29
[45] = system: SF-295
[46] = system: A549
[47] = system: LOX IMVI
[48] = system: M14
[49] = system: HL-60
[50] = system: A498
[51] = system: K562
[52] = system: SN12C
[53] = system: OVCAR-3
[54] = system: SW-620
[55] = system: RXF 393
[56] = system: SK-MEL-2
[57] = system: TK-10
[58] = system: HOP-92

CN(/N=C/c1ccc(C(=O)O)cc1)C1=NCCCCN1
GI50 [1]: 98.9 µM (inactive) | GI50 [2]: > 100 µM (inactive) | GI50 [3]: > 100 µM | GI50 [4]: > 100 µM (inactive) | GI50 [5]: > 100 µM (inactive) | GI50 [6]: > 100 µM (inactive) | GI50 [7]: > 100 µM (inactive) | GI50 [8]: > 100 µM (inactive) | GI50 [9]: > 100 µM (inactive) | GI50 [10]: > 100 µM (inactive) | GI50 [11]: > 100 µM (inactive) | GI50 [12]: > 100 µM (inactive) | GI50 [13]: > 100 µM (inactive) | GI50 [14]: > 100 µM (inactive) | GI50 [15]: > 100 µM (inactive) | GI50 [16]: > 100 µM (inactive) | GI50 [17]: > 100 µM (inactive) | GI50 [18]: > 100 µM (inactive) | GI50 [19]: > 100 µM (inactive) | GI50 [20]: > 100 µM (inactive) | GI50 [21]: > 100 µM (inactive) | GI50 [22]: > 100 µM (inactive) | GI50 [23]: > 100 µM (inactive) | GI50 [24]: > 100 µM (inactive) | GI50 [25]: > 100 µM (inactive) | GI50 [26]: > 100 µM (inactive) | GI50 [27]: > 100 µM (inactive) | GI50 [28]: > 100 µM (inactive) | GI50 [29]: > 100 µM (inactive) | GI50 [30]: > 100 µM (inactive) | GI50 [31]: > 100 µM (inactive) | GI50 [32]: > 100 µM (inactive) | GI50 [33]: > 100 µM (inactive) | GI50 [34]: > 100 µM (inactive) | GI50 [35]: > 100 µM (inactive) | GI50 [36]: > 100 µM (inactive) | GI50 [37]: > 100 µM (inactive) | GI50 [38]: > 100 µM (inactive) | GI50 [39]: > 100 µM (inactive) | GI50 [40]: > 100 µM (inactive) | GI50 [41]: > 100 µM (inactive) | GI50 [42]: > 100 µM (inactive) | GI50 [43]: > 100 µM (inactive) | GI50 [44]: > 100 µM (inactive) | GI50 [45]: > 100 µM (inactive) | GI50 [46]: > 100 µM (inactive) | GI50 [47]: > 100 µM (inactive) | GI50 [48]: > 100 µM (inactive) | GI50 [49]: > 100 µM (inactive) | GI50 [50]: > 100 µM (inactive) | GI50 [51]: > 100 µM (inactive) | GI50 [52]: > 100 µM (inactive) | GI50 [53]: > 100 µM (inactive)

CCOC(=O)C1=c2[nH]c3cccc4cccc(c43)n2C=C(C(C)=O)C1CC(C)=O (centres undefined)
GI50 [1]: > 100 µM (inactive) | GI50 [2]: 69.7 µM (inactive) | GI50 [3]: 44 µM | GI50 [4]: > 100 µM (inactive) | GI50 [5]: 68.7 µM (inactive) | GI50 [6]: > 100 µM (inactive) | GI50 [7]: > 100 µM (inactive) | GI50 [8]: > 100 µM (inactive) | GI50 [9]: > 100 µM (inactive) | GI50 [54]: 40.6 µM (inactive) | GI50 [10]: > 100 µM (inactive) | GI50 [11]: > 100 µM (inactive) | GI50 [12]: > 100 µM (inactive) | GI50 [15]: > 100 µM (inactive) | GI50 [16]: 94.2 µM (inactive) | GI50 [17]: 35.1 µM (inactive) | GI50 [18]: 80 µM (inactive) | GI50 [19]: 62.7 µM (inactive) | GI50 [55]: 56.1 µM (inactive) | GI50 [56]: > 100 µM (inactive) | GI50 [20]: > 100 µM (inactive) | GI50 [21]: > 100 µM (inactive) | GI50 [22]: 40.4 µM (inactive) | GI50 [23]: > 100 µM (inactive) | GI50 [24]: 34.4 µM (inactive) | GI50 [25]: > 100 µM (inactive) | GI50 [26]: > 100 µM (inactive) | GI50 [27]: > 100 µM (inactive) | GI50 [29]: > 100 µM (inactive) | GI50 [30]: 6.4 µM (inactive) | GI50 [31]: > 100 µM (inactive) | GI50 [32]: > 100 µM (inactive) | GI50 [33]: 19.9 µM (inactive) | GI50 [34]: 56.6 µM (inactive) | GI50 [57]: > 100 µM (inactive) | GI50 [35]: 55.2 µM (inactive) | GI50 [58]: 36.6 µM (inactive) | GI50 [37]: 46.2 µM (inactive) | GI50 [38]: 37.4 µM (inactive) | GI50 [39]: 34 µM (inactive) | GI50 [40]: > 100 µM (inactive) | GI50 [43]: 52.6 µM (inactive) | GI50 [45]: > 100 µM (inactive) | GI50 [46]: 46.2 µM (inactive) | GI50 [47]: 43.2 µM (inactive) | GI50 [48]: > 100 µM (inactive) | GI50 [49]: 12.3 µM (inactive) | GI50 [50]: 86.1 µM (inactive) | GI50 [51]: > 100 µM (inactive) | GI50 [52]: > 100 µM (inactive) | GI50 [53]: > 100 µM (inactive)
